Among the test systems are MDA-MB-435; M14; PC-3; KM12; SN12C; UO-31; U-251; NCI-H460; RPMI-8226; IGROV-1; BT-549; SW-620; TK-10; SR; MOLT-4; 786-0; T47D; HOP-62; LOX IMVI.
Experiment in all cases: DTP human tumour cell line panel, 48 h

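Dose response: 5 concentrations. Exposure: 48 h. Format: 96-well plates. Endpoint: linear interpolation; highest concentration if not reached. Here, GI50 denotes the concentration required for 50% inhibition of growth.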 Calls of active or inactive are those of the source. Cut-off read from the data, not from the text of the source: active = GI50 up to about 1.1 µM and inactive = higher.

As a reminder, the GI50 is the concentration that inhibits growth by half.

On to `OC1C=C2C3CN(Cc4cc5c(cc43)OCO5)[C@H]2C[C@@H]1O` (stereo not given in full), for which the GI50 is 3.94 µM (inactive) with MDA-MB-435; 4.22 µM (inactive) with M14; 2.19 µM (inactive) in the experiment with PC-3; 3.86 µM (inactive) in the experiment with KM12; 5.12 µM (inactive) in the experiment with SN12C; 6.3 µM (inactive) in the experiment with UO-31. In addition, the GI50 is 4.86 µM (inactive) in the experiment with U-251; 2.28 µM (inactive) in the experiment on NCI-H460; 6.93 µM (inactive) with RPMI-8226; 4.02 µM (inactive) with IGROV-1; 2.13 µM (inactive) with BT-549; 5.57 µM (inactive) in the experiment on SW-620. Further, the GI50 in the experiment with TK-10 was 4.13 µM (inactive); in the experiment with SR, 2.94 µM (inactive); in the experiment with MOLT-4 it was 4.29 µM (inactive); in the experiment on 786-0 it was 4.12 µM (inactive); in the experiment on T47D, 1.16 µM (inactive); with HOP-62 it was 6.84 µM (inactive). Also, the GI50 in the experiment on LOX IMVI was 4.06 µM (inactive).

For `CC1=NN(c2cccc(S(=O)(=O)O)c2)C2(C1)SCC(=O)N2c1nc2ccccc2s1` (stereo not given), the GI50 in the experiment with MDA-MB-435, in the experiment with M14, in the experiment with PC-3, in the experiment with KM12, with SN12C and in the experiment with UO-31 was > 100 µM (inactive) each time. The GI50 in the experiment with U-251 is > 100 µM (inactive); in the experiment with NCI-H460 it was > 100 µM (inactive); in the experiment with RPMI-8226, > 100 µM (inactive); in the experiment on IGROV-1 it was > 100 µM (inactive); in the experiment on BT-549, > 100 µM (inactive); with SW-620, 9.1 µM (inactive). For the same compound, the GI50 in the experiment with TK-10 was > 100 µM (inactive); in the experiment on SR it was 35.7 µM (inactive); with MOLT-4, > 100 µM (inactive); with 786-0 it was > 100 µM (inactive); in the experiment on T47D it was > 100 µM (inactive); in the experiment with HOP-62, > 100 µM (inactive). The GI50 in the experiment on LOX IMVI was 88.9 µM (inactive).

Regarding `NC(=S)N/N=C/C1NCCC2CCCCC21` (stereo not given), the GI50 is 0.414 µM (active) in the experiment with MDA-MB-435; 0.17 µM (active) in the experiment on M14; 0.363 µM (active) with PC-3; 0.416 µM (active) in the experiment with KM12; 0.167 µM (active) in the experiment with SN12C; 0.34 µM (active) with UO-31. Also, the GI50 with U-251 was 0.136 µM (active); with NCI-H460, 0.231 µM (active); in the experiment with RPMI-8226 it was 0.279 µM (active); with IGROV-1, 0.689 µM (active); with BT-549, 0.834 µM (active); in the experiment with SW-620, 0.568 µM (active). Moreover, the GI50 was 0.33 µM (active) in the experiment with TK-10; 0.137 µM (active) in the experiment with SR; 0.257 µM (active) in the experiment with MOLT-4; 0.138 µM (active) with 786-0; 0.282 µM (active) with T47D; 0.0938 µM (active) in the experiment with HOP-62. Also, in the experiment on LOX IMVI, the GI50 is 0.221 µM (active).

On to `CSC1SCC2C(=O)N(C)C3(CC3C)C(=O)OCC(NC(=O)c3nc4ccccc4cc3O)C(=O)NC(C)C(=O)N(C)C1C(=O)N(C)C1(CC1C)C(=O)OCC(NC(=O)c1nc3ccccc3cc1O)C(=O)NC(C)C(=O)N2C` (stereo not given), for which the GI50 is < 0.0001 µM (active) in the experiment on MDA-MB-435; < 0.0001 µM (active) in the experiment on M14; < 0.0001 µM (active) in the experiment with PC-3; < 0.0001 µM (active) in the experiment with KM12; < 0.0001 µM (active) in the experiment on SN12C; 0.000449 µM (active) in the experiment with UO-31. Further, the GI50 with U-251 is < 0.0001 µM (active); in the experiment on NCI-H460, < 0.0001 µM (active); in the experiment on RPMI-8226 it was < 0.0001 µM (active); in the experiment on IGROV-1, < 0.0001 µM (active); in the experiment with BT-549, < 0.01 µM (active); in the experiment on SW-620 it was < 0.0001 µM (active). Further, the GI50 with TK-10, with SR, with MOLT-4, in the experiment with 786-0, in the experiment on T47D and in the experiment on HOP-62 was < 0.0001 µM (active) in each case. Moreover, the GI50 in the experiment with LOX IMVI was < 0.0001 µM (active).

In the case of `C1=C(c2ccccc2)C(N2CCOCC2)Oc2ccccc21` (stereo not given), the GI50 in the experiment on MDA-MB-435 is > 100 µM (inactive); with M14 it was > 100 µM (inactive); in the experiment on PC-3, 77.4 µM (inactive); in the experiment on KM12 it was > 100 µM (inactive); with SN12C, > 100 µM (inactive); in the experiment on UO-31 it was 87.7 µM (inactive). For the same compound, the GI50 in the experiment on U-251 was > 100 µM (inactive); in the experiment on NCI-H460, > 100 µM (inactive); in the experiment with RPMI-8226, 96.4 µM (inactive); with IGROV-1, > 100 µM (inactive); with BT-549, 45.3 µM (inactive); in the experiment on SW-620 it was > 100 µM (inactive). For the same compound, the GI50 in the experiment with TK-10 is > 100 µM (inactive); in the experiment on SR, > 100 µM (inactive); in the experiment with MOLT-4, 81.7 µM (inactive); in the experiment on 786-0 it was > 100 µM (inactive); in the experiment with T47D, > 100 µM (inactive); in the experiment with HOP-62, > 100 µM (inactive). Also, the GI50 in the experiment on LOX IMVI was > 100 µM (inactive).

`Cc1cc(C)nc(NS(=O)(=O)c2ccc(Nc3c4ccccc4nc4ccc(C(=O)Nc5ccc(S(=O)(=O)N=C(N)N)cc5)cc34)cc2)n1`: the GI50 was 48.4 µM (inactive) with MDA-MB-435; > 100 µM (inactive) with M14; > 100 µM (inactive) in the experiment with PC-3; > 100 µM (inactive) with KM12; 97.7 µM (inactive) with SN12C; 82.4 µM (inactive) with UO-31. For the same compound, the GI50 was 60.7 µM (inactive) in the experiment on U-251; 36 µM (inactive) with NCI-H460; 35.7 µM (inactive) in the experiment on RPMI-8226; > 100 µM (inactive) in the experiment on IGROV-1; 30.5 µM (inactive) in the experiment on BT-549; 48.4 µM (inactive) with SW-620. Further, the GI50 with TK-10 is > 100 µM (inactive); with SR, 44.6 µM (inactive); in the experiment on MOLT-4, 32.3 µM (inactive); with 786-0 it was 23.3 µM (inactive); in the experiment on T47D, 38.2 µM (inactive); with HOP-62, > 100 µM (inactive). In addition, in the experiment on LOX IMVI, the GI50 is 17 µM (inactive).

For `Cc1cc(S(=O)(=O)Nc2nnc3cnc4ccccc4n23)c(S)cc1Cl`, the GI50 in the experiment with MDA-MB-435 is > 100 µM (inactive); in the experiment with M14 it was > 100 µM (inactive); in the experiment with PC-3 it was > 100 µM (inactive); in the experiment with KM12 it was > 83.6 µM (inactive); with SN12C it was > 100 µM (inactive); in the experiment on UO-31 it was 35.2 µM (inactive). In addition, the GI50 is > 74.1 µM (inactive) with U-251; 51.5 µM (inactive) in the experiment with NCI-H460; > 100 µM (inactive) with RPMI-8226; > 100 µM (inactive) in the experiment on IGROV-1; > 88.5 µM (inactive) in the experiment with BT-549; > 100 µM (inactive) in the experiment with SW-620. For the same compound, the GI50 in the experiment with TK-10 is > 100 µM (inactive); in the experiment on SR, > 100 µM (inactive); in the experiment on MOLT-4 it was > 100 µM (inactive); with 786-0, > 100 µM (inactive); in the experiment on T47D, > 100 µM (inactive); in the experiment on HOP-62, 79.4 µM (inactive). Also, the GI50 in the experiment with LOX IMVI was > 100 µM (inactive).

In the case of `COc1ccc(/C=C/C(=O)c2ccccc2)cc1OC`, the GI50 was 4.59 µM (inactive) in the experiment with MDA-MB-435; 15 µM (inactive) in the experiment with M14; 11.3 µM (inactive) in the experiment on PC-3; 3.13 µM (inactive) with KM12; 14.6 µM (inactive) in the experiment with SN12C; 13.3 µM (inactive) in the experiment with UO-31. Further, the GI50 with U-251 was 9.59 µM (inactive); in the experiment on NCI-H460, 16.6 µM (inactive); in the experiment with RPMI-8226, 7.41 µM (inactive); in the experiment on IGROV-1, 17.2 µM (inactive); in the experiment with BT-549 it was 18.2 µM (inactive); in the experiment with SW-620, 4.23 µM (inactive). In addition, the GI50 is 17.2 µM (inactive) with TK-10; 3.15 µM (inactive) in the experiment on SR; 13.5 µM (inactive) in the experiment with MOLT-4; 4.97 µM (inactive) in the experiment with 786-0; 10.8 µM (inactive) in the experiment on T47D; 15.4 µM (inactive) in the experiment with HOP-62. In addition, the GI50 with LOX IMVI was 5.46 µM (inactive).

For the compound `C=CC(COC(=O)C(C)(C)OC(C)=O)c1ccc(OC(=O)C(C)C)c(OC)c1` (stereo not given), the GI50 in the experiment on MDA-MB-435 was 8.91 µM (inactive); with M14 it was 6.43 µM (inactive); with PC-3 it was 9.68 µM (inactive); in the experiment with KM12, 4.07 µM (inactive); in the experiment with SN12C, 3.34 µM (inactive); in the experiment with UO-31, 7.69 µM (inactive). For the same compound, the GI50 with U-251 is 3.59 µM (inactive); in the experiment on NCI-H460 it was 2.62 µM (inactive); with RPMI-8226, 3.78 µM (inactive); in the experiment on IGROV-1, 14.1 µM (inactive); in the experiment with BT-549, 8.87 µM (inactive); with SW-620 it was 4.84 µM (inactive). The GI50 is 8.57 µM (inactive) with TK-10; 2.56 µM (inactive) in the experiment on SR; 3.62 µM (inactive) in the experiment with MOLT-4; 7.38 µM (inactive) in the experiment with 786-0; 3.84 µM (inactive) in the experiment on T47D; 10.1 µM (inactive) with HOP-62. Also, the GI50 with LOX IMVI is 3.17 µM (inactive).

Consider `CC12CCCCC1=C(F)C(F)(F)S2` (stereo not given), for which the GI50 with MDA-MB-435 was 43.3 µM (inactive); in the experiment with M14 it was 37.6 µM (inactive); in the experiment with PC-3, 40.7 µM (inactive); with KM12 it was > 84.7 µM (inactive); in the experiment on SN12C, > 57.7 µM (inactive); in the experiment on UO-31, 15 µM (inactive). Further, the GI50 in the experiment on U-251 is 98.6 µM (inactive); in the experiment with NCI-H460, > 100 µM (inactive); in the experiment with RPMI-8226, 7.46 µM (inactive); in the experiment with IGROV-1, > 71.9 µM (inactive); in the experiment with BT-549, 19.1 µM (inactive); in the experiment on SW-620, 24.5 µM (inactive). In addition, the GI50 with TK-10 is 39.2 µM (inactive); in the experiment with SR it was 15 µM (inactive); with MOLT-4, 11.3 µM (inactive); with 786-0, 20.8 µM (inactive); in the experiment with T47D it was 26.7 µM (inactive); in the experiment with HOP-62, 63.8 µM (inactive). In addition, the GI50 in the experiment on LOX IMVI is 31.8 µM (inactive).

These data come from ChEMBL document CHEMBL1201862, “PubChem BioAssay data set” (2004).
